Reference: ChEMBL document CHEMBL1201862, “PubChem BioAssay data set” (2004)
Activity calls are given as the source filed them.

How the values were obtained:
[1] = target: Nonstructural protein 1 (Influenza A virus, UniProt Q194T2); type: functional, Influenza A virus (A/California/07/2009(H1N1))
[2] = target: T1, Protein skinhead-1 (Caenorhabditis elegans, UniProt P34707); type: functional
T1 sequence (P34707 whole entry): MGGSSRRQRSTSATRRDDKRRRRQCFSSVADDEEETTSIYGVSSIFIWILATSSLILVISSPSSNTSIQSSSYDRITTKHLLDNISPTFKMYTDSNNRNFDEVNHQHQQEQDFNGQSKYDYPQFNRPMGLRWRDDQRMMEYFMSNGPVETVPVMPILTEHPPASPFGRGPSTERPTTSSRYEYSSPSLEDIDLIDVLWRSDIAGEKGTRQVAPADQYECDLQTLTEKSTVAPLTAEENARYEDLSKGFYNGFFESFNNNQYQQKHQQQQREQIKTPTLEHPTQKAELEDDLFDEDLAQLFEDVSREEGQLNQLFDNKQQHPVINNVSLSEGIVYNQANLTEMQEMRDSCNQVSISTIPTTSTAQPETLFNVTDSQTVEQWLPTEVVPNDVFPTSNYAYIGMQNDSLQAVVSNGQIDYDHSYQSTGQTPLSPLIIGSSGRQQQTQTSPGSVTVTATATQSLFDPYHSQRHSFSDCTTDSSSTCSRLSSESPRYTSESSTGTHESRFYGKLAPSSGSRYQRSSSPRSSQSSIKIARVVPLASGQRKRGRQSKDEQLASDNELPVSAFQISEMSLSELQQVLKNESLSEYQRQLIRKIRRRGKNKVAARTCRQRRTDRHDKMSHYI

[3] = OVCAR-3 cell viability loss – plate reader, dry powder samples, PAX8 inhibitor project, dose response (AID 743044); type: functional, cell-based
[4] = target: Paired box protein Pax-8 (Homo sapiens, UniProt Q06710); assay: PAX8 transcriptional activity inhibition in RMG-I – RMG-I cells, luciferase, cherry-pick, dose response (AID 687027); type: functional, cell-based;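 note: luciferase reporter driven by Pax8 target thyroperoxidase promoter measured by SteadyGlo luminescence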
[5] = OVCAR8 cell viability loss – plate reader, dry powder samples, PAX8 project, dose response (AID 743197); type: functional, cell-based; conditions: OVCAR-8
[6] = target: G-protein coupled receptor 55 (Homo sapiens, UniProt Q9Y2T6); assay: inhibition of LPI-stimulated GPR55 beta-arrestin translocation – imaging, U2OS, beta-arrestin-GFP, LPI agonist, primary screen (AID 2013); type: functional;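 note: antagonist potency measured as reduced agonist-driven arrestin aggregation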
[7] = target: T2, fMet-Leu-Phe receptor (Homo sapiens, UniProt P21462); assay: formyl peptide receptor binders – dose response (AID 519); type: functional
T2 sequence (P21462 whole entry): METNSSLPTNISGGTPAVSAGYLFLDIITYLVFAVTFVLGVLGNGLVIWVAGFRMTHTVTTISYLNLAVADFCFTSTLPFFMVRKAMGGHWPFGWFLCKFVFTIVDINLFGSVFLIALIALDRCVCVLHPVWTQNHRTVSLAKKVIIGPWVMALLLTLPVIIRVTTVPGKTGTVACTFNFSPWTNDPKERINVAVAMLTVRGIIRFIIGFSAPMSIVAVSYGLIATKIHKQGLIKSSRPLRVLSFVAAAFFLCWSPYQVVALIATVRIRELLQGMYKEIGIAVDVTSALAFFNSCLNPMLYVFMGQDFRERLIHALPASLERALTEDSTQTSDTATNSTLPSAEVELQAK

[8] = system: SN12K1; assay: cells; type: functional; conditions: Homo sapiens
[9] = system: P388; assay: cells; type: functional; conditions: Mus musculus
[10] = system: P388/ADR; assay: cells; type: functional; conditions: Mus musculus
[11] = target: T3, Fatty acid synthase (Homo sapiens, UniProt P49327); assay: inhibition of human FAS-TE enzyme activity – biochemical, kinetic fluorescence intensity, dose response (AID 624326); type: functional;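 note: rate of fluorescence rise from hydrolysis of a fluorogenic O-methyl fluorescein ester substrate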
[12] = target: T3, Fatty acid synthase; assay: inhibition of human FAS-TE enzyme activity – biochemical, endpoint fluorescence intensity, uHTS hits, dose response (AID 624327); type: functional;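 note: fluorescence from hydrolysis of an O-methyl fluorescein acyl ester substrate by the enzyme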
[13] = target: Prothrombin (Homo sapiens, UniProt P00734); assay: Thrombin 1536 HTS Dose Response Confirmation. [Related pubchem assays: 1046 (Thrombin 1536 HTS; hits were confirmed in this assay)]; type: functional
[14] = target: T4, Coagulation factor XII (Homo sapiens, UniProt P00748); type: functional;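 note: activated factor XIIa alpha cleaving a fluorogenic AMC peptide substrate; inhibitor potency from loss of enzyme activity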
T4 sequence (P00748 whole entry): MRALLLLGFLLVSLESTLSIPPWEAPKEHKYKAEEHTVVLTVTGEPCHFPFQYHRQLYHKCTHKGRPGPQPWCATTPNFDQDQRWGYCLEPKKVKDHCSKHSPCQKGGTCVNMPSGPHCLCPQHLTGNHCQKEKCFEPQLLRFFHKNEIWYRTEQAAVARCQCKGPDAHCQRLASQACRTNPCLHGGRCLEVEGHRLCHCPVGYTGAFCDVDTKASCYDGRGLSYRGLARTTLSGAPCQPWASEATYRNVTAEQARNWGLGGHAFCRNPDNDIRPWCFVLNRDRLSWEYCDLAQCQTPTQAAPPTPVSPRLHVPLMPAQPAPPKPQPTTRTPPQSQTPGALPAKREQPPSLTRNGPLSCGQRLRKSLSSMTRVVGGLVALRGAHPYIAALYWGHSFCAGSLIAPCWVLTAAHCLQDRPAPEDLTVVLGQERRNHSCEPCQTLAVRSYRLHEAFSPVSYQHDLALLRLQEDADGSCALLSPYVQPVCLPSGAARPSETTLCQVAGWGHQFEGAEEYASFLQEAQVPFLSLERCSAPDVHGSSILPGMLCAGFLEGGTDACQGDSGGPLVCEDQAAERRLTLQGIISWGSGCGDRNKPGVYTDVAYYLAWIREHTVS

[15] = target: T5, Heat shock factor protein 1 (Mus musculus, UniProt P38532); assay: decrease of HSF1-responsive luciferase luminescence – cell-based, NIH3T3, dose retest, confirmation (AID 2382); type: functional;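 note: NIH3T3 fibroblasts with HSF1-driven luciferase reporter stressed by proteasome inhibitor MG132; luminescence from HSF1-driven luciferase expression after 8 hours of MG132 stress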
T5 sequence (P38532 whole entry): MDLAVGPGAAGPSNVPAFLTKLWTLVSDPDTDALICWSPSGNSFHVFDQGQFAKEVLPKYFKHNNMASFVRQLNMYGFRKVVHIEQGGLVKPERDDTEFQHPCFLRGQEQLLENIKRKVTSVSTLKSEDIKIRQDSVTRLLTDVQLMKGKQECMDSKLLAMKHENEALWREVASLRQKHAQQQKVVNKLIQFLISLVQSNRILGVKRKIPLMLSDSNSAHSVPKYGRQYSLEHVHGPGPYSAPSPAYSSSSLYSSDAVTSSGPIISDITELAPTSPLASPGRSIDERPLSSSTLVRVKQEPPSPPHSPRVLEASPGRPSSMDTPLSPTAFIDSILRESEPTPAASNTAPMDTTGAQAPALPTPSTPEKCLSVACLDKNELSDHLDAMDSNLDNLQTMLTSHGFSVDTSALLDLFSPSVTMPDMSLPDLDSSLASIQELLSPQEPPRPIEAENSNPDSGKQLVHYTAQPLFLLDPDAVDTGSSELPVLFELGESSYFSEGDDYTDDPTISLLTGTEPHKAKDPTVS

[16] = target: Cytochrome P450 3A4 (Homo sapiens, UniProt P08684); conditions: Potency;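 note: confirmatory qHTS run detecting inhibitors and substrates of CYP3A4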
[17] = Luminescence Cell-Based Dose Retest to Confirm Inhibitors of Cancer Stem Cells. [Related pubchem assays (depositor defined):AID2717, AID2721]; type: functional; conditions: Homo sapiens
[18] = target: Induced myeloid leukemia cell differentiation protein Mcl-1 (Homo sapiens, UniProt Q07820); type: functional
Induced myeloid leukemia cell differentiation protein Mcl-1, sequence (Q07820 whole entry): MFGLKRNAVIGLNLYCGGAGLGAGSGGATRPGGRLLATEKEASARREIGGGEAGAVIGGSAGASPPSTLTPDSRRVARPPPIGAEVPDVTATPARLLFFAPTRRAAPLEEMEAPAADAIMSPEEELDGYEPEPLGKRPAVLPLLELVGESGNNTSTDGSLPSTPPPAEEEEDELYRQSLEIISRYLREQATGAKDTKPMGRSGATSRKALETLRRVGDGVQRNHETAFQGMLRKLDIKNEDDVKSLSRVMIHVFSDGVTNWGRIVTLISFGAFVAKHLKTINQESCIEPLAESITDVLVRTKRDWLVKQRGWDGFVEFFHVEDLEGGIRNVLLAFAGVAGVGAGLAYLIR

Cytochrome P450 3A4, sequence (P08684 whole entry): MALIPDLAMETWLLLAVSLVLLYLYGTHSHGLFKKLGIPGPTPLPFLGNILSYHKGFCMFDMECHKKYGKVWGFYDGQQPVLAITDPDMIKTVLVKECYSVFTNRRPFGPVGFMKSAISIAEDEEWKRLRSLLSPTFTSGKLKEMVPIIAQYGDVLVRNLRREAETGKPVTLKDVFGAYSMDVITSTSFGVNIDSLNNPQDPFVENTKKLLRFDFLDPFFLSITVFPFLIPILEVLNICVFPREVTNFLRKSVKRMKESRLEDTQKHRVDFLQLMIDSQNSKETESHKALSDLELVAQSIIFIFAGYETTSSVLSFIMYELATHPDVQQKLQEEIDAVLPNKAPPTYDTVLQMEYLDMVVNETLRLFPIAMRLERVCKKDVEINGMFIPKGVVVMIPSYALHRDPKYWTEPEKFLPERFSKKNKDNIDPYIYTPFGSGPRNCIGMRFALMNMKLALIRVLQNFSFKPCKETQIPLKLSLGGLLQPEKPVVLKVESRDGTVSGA
G-protein coupled receptor 55, sequence (Q9Y2T6 whole entry): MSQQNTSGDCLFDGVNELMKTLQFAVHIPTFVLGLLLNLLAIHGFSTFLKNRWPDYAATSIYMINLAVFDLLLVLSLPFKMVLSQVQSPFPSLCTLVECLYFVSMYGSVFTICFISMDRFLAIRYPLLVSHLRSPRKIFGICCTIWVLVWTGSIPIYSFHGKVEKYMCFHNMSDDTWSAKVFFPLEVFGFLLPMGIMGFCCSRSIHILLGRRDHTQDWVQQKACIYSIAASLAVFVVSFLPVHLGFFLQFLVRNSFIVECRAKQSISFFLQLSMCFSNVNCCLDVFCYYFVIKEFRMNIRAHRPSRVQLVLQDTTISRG
T3 sequence (P49327 whole entry): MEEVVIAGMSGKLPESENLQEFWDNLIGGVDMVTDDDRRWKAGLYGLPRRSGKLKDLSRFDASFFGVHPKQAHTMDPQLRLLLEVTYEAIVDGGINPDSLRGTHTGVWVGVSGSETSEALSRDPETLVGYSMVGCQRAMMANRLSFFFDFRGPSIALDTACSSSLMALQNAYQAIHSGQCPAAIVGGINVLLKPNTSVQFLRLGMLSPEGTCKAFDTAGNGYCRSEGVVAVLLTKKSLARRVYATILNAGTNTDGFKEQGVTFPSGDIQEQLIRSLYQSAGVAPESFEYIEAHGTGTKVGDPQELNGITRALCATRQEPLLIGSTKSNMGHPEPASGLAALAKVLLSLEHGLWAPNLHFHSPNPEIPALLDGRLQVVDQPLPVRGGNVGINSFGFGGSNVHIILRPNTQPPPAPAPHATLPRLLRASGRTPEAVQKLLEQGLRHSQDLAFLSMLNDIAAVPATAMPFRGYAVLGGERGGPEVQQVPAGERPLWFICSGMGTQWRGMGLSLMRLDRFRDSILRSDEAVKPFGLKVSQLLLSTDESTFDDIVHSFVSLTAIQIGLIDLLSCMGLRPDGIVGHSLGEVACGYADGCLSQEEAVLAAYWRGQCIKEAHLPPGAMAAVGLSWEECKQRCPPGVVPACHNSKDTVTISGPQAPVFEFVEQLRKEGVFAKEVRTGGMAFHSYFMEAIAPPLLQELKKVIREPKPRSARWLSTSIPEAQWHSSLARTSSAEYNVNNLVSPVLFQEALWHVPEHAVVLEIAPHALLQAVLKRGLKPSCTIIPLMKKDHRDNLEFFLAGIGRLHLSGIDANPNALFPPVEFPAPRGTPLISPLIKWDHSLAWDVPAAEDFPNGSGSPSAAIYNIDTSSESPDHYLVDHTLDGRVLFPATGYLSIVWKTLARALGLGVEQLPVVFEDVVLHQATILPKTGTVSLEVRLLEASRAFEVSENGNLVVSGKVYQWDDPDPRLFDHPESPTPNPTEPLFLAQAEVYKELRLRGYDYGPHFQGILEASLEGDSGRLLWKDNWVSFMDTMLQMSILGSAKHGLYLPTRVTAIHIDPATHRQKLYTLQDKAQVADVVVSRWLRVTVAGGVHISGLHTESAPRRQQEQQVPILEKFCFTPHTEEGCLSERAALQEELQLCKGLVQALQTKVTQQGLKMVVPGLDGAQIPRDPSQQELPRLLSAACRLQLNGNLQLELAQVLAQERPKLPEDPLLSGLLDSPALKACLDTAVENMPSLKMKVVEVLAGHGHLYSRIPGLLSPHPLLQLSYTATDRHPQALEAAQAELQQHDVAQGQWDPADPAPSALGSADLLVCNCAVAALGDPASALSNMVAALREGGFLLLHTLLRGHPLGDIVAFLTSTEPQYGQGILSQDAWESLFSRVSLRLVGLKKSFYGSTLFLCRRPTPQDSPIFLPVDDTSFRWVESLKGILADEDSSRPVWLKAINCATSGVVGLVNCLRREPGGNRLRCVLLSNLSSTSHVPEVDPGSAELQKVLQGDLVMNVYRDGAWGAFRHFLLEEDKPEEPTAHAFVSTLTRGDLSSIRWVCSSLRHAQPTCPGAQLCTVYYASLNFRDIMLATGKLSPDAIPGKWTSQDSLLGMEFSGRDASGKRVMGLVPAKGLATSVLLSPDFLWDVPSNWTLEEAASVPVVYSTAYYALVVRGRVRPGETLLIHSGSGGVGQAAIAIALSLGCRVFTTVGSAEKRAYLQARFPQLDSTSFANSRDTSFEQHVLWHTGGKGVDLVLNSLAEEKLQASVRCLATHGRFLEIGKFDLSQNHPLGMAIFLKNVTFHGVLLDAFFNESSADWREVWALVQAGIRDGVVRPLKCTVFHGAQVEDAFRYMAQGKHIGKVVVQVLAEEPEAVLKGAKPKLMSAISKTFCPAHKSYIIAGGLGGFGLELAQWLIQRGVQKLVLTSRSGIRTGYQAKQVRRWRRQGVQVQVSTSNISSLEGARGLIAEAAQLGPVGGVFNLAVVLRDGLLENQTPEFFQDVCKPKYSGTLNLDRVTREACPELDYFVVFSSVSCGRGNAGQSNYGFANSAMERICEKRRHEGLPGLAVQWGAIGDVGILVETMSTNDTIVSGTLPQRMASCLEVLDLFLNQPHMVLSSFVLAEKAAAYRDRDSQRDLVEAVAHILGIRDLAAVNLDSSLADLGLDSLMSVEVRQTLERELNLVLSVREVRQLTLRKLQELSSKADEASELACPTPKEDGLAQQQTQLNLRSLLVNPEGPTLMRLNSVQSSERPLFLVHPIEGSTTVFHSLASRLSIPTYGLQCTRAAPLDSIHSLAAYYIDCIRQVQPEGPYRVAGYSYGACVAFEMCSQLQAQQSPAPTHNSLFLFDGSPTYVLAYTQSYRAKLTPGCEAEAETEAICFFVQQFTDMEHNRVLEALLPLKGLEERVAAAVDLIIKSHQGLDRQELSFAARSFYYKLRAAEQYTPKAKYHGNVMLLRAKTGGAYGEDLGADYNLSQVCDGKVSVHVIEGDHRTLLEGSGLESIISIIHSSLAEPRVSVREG
Nonstructural protein 1, sequence (Q194T2 whole entry): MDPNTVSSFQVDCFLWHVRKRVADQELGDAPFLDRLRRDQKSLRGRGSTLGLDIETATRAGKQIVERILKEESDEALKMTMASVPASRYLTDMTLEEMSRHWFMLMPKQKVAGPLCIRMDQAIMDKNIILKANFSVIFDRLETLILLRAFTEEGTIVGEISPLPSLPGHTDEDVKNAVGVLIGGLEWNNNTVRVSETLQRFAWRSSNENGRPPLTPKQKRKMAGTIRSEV
Paired box protein Pax-8, sequence (Q06710 whole entry): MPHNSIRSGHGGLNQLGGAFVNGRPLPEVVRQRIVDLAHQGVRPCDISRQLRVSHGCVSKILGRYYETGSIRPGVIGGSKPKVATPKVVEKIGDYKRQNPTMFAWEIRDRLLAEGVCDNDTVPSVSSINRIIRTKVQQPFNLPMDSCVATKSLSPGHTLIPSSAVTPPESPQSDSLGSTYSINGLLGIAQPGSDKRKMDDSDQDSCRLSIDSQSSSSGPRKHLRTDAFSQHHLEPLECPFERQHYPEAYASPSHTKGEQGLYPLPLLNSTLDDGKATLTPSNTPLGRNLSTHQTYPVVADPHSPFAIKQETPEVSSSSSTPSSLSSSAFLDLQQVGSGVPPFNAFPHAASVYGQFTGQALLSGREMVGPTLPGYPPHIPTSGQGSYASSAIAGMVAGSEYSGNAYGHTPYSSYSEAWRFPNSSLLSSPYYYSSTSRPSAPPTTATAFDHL

## CCN1C(=O)/C(=C2\C=Cc3cc(C)ccc3N2CC)OC1=S
[1]
  IC50: > 100 µM (active)
[2]
  IC50: > 100 µM (inactive)

## Cc1ccc(S(=O)(=O)Nc2ccc3c(c2)C(=O)N([C@@H](C)CO)C[C@@H](C)[C@H](CN(C)Cc2ccc(C(F)(F)F)cc2)OCCCC[C@H](C)O3)cc1
[3]
  AC50: 4.07 µM (active)
[4]
  AC50: 6.38 µM (active)
[5]
  AC50: > 70 µM (inactive)

## Clc1ccc2oc3c(Cl)ncnc3c2c1
[6]
  IC50: 6.41 µM (active)

## COC(=O)[C@H](C(C)C)n1c(C)c(C(C)=O)c(C(C)=O)c1C
[7]
  Ki: > 66.7 µM (inactive)

## C[C@H](N)C(=O)N[C@@H]1[C@H]2C(=C(O)C[C@@H](O)[C@@H]2O)C(=O)O[C@@H]1C
[8]
  GI50: > 100 µM (inactive)
[9]
  GI50: > 53.2 µM (inactive)
[10]
  GI50: > 73.3 µM (inactive)

## CC1[C@@]2(O[C@@H]3C=C4C5CCC6Cc7nc8c(nc7C[C@@]6(C)C5C[C@H](O)[C@@]4(C)[C@]13O)CC1CCc3c(cc4c5c3C(O)C[C@H]5[C@@H](C)C3(O4)OC(C)(C)CC3O)[C@]1(C)C8)O[C@@](C)(CO)C[C@@H]2O (some centres undefined)
[8]
  GI50: 0.0404 µM (active)
[9]
  GI50: 0.103 µM (active)
[10]
  GI50: 2.69 µM (inactive)

## Cc1cc(-c2ccccc2)nc(N/N=C/c2ccc([N+](=O)[O-])cc2)n1
[11]
  IC50: 6.41 µM (active)
[12]
  IC50: 8.37 µM (active)
[1]
  IC50: > 100 µM (active)

## O=C1NC2(CCCCC2)NN1c1ccccc1
[13]
  IC50: > 50 µM (not active)

## CN(N=O)C(=O)N[C@H]1C(O)O[C@H](CO)[C@@H](O)[C@@H]1O (some centres undefined)
[8]
  GI50: 532 µM (inactive)
[9]
  GI50: 451 µM (inactive)
[10]
  GI50: 484 µM (inactive)

## CC(=O)n1nc(-c2ccc(Cl)cc2)nc1NCc1ccco1
[13]
  IC50: 1.44 µM (active)

## C#CCNC(=O)CCC(N)C(=O)O (centres undefined)
[8]
  GI50: > 100 µM (inactive)
[9]
  GI50: > 100 µM (inactive)
[10]
  GI50: > 100 µM (inactive)

## CCc1nnc(NC(=O)CSc2nnc(-c3cc4ccccc4cc3O)n2CC)s1
[7]
  Ki: 61.1 µM (inactive)

## NC(=O)c1ccsc1NC(=O)c1nc(-c2ccccc2)n(-c2ccccc2)n1
[13]
  IC50: 4.3 µM (active)

## O=C(O)CC(Cc1ccc(Br)cc1)C(=O)O (centres undefined)
[14]
  IC50: > 50 µM (inactive)
[15]
  EC50: > 195 µM (not active)

## COC1=C(C)C(=O)C2=C(C1=O)[C@@H]1[C@@H]3Cc4c(OC(=O)CO)c(C)c(OC)c(O)c4[C@H](CNC(=O)C(C)=O)N3[C@@H](C#N)[C@H](C2)N1C
[8]
  GI50: 0.0358 µM (active)
[9]
  GI50: < 0.01 µM (active)
[10]
  GI50: 0.125 µM (active)

## Nc1ccnn1Cc1cccs1
[14]
  IC50: > 50 µM (inactive)

## COCCN(CCOC)c1nc(C)nc2c1nc(-c1ccccc1)n2CCN1CCCC1
[16]
  AC50: 20 µM (inconclusive)

## CCN(CC)c1ccc2c(C)cc(=O)oc2c1
[16]
  AC50: 20 µM (inconclusive)

## Cc1ccc(/C=C2\C(=O)NC(=O)N(CCc3ccc(F)cc3)C2=O)o1
[6]
  IC50: 3.55 µM (active)

## O=C(C1=C(O)C(=O)N(CCCN2CCOCC2)C1c1ccccn1)c1cc2ccccc2o1 (centres undefined)
[7]
  Ki: 60.7 µM (inactive)

## COc1cc(/C=N/NC(=O)c2cc(C34CC5CC(CC(C5)C3)C4)[nH]n2)ccc1O
[6]
  IC50: 2.69 µM (active)
[17]
  AC50: 699 nM (active)

## CC(C)=CCC/C(C)=C/C=C/C1=CC2(C)CC1(C)C(/C=C(\C)CCC=C(C)C)CC2=O (centres undefined)
[16]
  AC50: 3.98 µM (inconclusive)

## CCC(CC)c1nnc(NC(=O)Oc2ccccc2)s1
[14]
  IC50: > 50 µM (inactive)

## Cc1nn2c(CN(C(=O)CN3CCOCC3)c3ccccc3)nnc2c2ccccc12
[14]
  IC50: > 50 µM (inactive)
[15]
  EC50: > 195 µM (not active)

## COc1cc(/C=N/Nc2n[nH]c3c4ccccc4nc-3n2)ccc1O
[18]
  IC50: 3.9 µM (active)

## O=C(C1=C(O)C(=O)N(CCc2ccccc2)C1c1cccnc1)c1ccco1 (centres undefined)
[7]
  Ki: > 66.7 µM (inactive)

## COc1ccc(-c2ccc3c(c2)[C@@H]2[C@@H](CCN2S(=O)(=O)c2ccc(OC)cc2)[C@@H](CO)N3C)cc1
[3]
  AC50: 31.2 µM (active)
[4]
  AC50: 12.3 µM (active)
[5]
  AC50: 51.2 µM (active)

## CC(CN1C(C)CCCC1C)OC(=O)c1ccc(Cl)cc1Cl (centres undefined)
[14]
  IC50: > 50 µM (inactive)

## O=C(CSC1CCCCC1)Nc1nccs1
[13]
  IC50: > 50 µM (not active)

## COc1ccc(N(CC(=O)Nc2ccc3c(c2)OCCO3)S(=O)(=O)c2c(C)nn(C)c2C)cc1
[14]
  IC50: > 50 µM (inactive)

## CC(C)c1ccc2c(c1)CCC1C(C)(C(N)=O)CCCC21C (centres undefined)
[16]
  AC50: 20 µM (inconclusive)

## CCCC(=O)n1nc(-c2cccnc2)nc1NCc1cccs1
[13]
  IC50: 0.00426 µM (active)

## Nc1ccn(C2OC(CO)C(O)C2O)c(=O)c1 (centres undefined)
[8]
  GI50: 344 µM (inactive)
[9]
  GI50: 57 µM (inactive)
